Earlier results, collected in patent US20070059360A1, “WATER-DISPERSIBLE ANTI-RETROVIRAL PHARMACEUTICAL COMPOSITIONS” (priority 2005, published 2007).

Target: HIV reverse transcriptase (Human immunodeficiency virus type 1 group M subtype B, UniProt P04585)
Details: in vitro; reported by S. A. Riddler, et al

## Cc1cn([C@H]2C=C[C@@H](CO)O2)c(=O)[nH]c1=O [Stavudine, 2′,3′-didehydro-3′-deoxythymidine]
  Inhibition of HIV reverse transcriptase: potent inhibitor
